Data on twelve compounds can be found in patent publication US5618726A, “Biodegradable azo dyes” (priority 1994, dated 1997).

For data set [1], the target named is T1, horseradish peroxidase type II (Armoracia rusticana, UniProt P00433).
T1 sequence (P00433 31-338): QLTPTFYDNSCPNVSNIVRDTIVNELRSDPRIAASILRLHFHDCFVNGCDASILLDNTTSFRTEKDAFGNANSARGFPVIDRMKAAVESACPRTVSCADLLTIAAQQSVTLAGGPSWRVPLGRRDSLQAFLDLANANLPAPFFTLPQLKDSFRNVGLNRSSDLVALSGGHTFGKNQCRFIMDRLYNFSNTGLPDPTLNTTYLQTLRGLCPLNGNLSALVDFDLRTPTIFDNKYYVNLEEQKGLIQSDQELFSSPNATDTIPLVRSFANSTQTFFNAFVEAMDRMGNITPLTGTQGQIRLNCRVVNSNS
The data set is described as follows: Oxidation of azo dyes by horseradish peroxidase preparation. The format is biochemical. The note with it: pH 8, 37° C., H2O2. The procedure: The reaction was started with the addition of 100 μl of 50 mM H2 O2 and was followed for 1 min at 37° C. Controls were run with no addition of H2 O2 or with the addition of the hemeperoxidase inhibitor KCN (final concentration 25 μM).

A further data set deals with ligninase. The experiment in a line: Oxidation of dyes by P. chrysosporium ligninase (crude preparation). It is filed as biochemical, Phanerochaete chrysosporium. The note with it: crude enzyme, conditions specific for ligninase. The protocol:
The peroxidase assay was carried out using a composition having a final volume of 1.0 ml. The reaction mixture contained 250 μl of 100 mM HEPES buffer (pH 8), 500 μl of 10 mM 2,4-dichlorophenol, 100 μl of 1 mM aminoantipyrine, 50 μl enzyme preparation and 100 μl 50 mM H2 O2. The reaction was initiated by the addition of hydrogen peroxide at 37° C. One unit of peroxidase activity was expressed as the amount of enzyme required for an increase of one absorbance-unit-per-minute at 510 nm. Assays of manganese peroxidase and of ligninase from P. chrysosporium were carried out as previously described by Paszczynski et al in "Manganese peroxidase of Phanerochaete chrysosporium: Purification," Methods Enzymol. 161:264-270, incorporated herein by reference. […] Biophys., 1986, 44:750-765. Preparation and assay of ligninase and manganese peroxidase from these P. chrysosporium cultures were carried out as previously reported by Paszczynski, et al., Methods Enzymol., 1988, 161:264-270. […] Purification," Methods Enzymol. 161:264-270. […] Cycle time was 30 seconds with the last measure after 15 minutes. […] The reaction conditions were the same as for acid yellow 9. No decolorization of the synthesized dyes by ligninase was detected.

For data set [2], the system named is S. chromofuscus A11 extracellular peroxidase. The data set is described as follows: Oxidation of azo dyes by S. chromofuscus A11 crude enzyme preparation. The note with it: pH 8, 37° C., H2O2. It is filed as biochemical, Streptomyces chromofuscus A11. The protocol:
Environ. Microbiol., 1988, 54:3057-3063. […] Microbiol. Biotechnol., 34:661-667. Incubation took place at 37° C. with shaking at 250 rpm. The culture supernatant was collected after 48 h incubation, and vacuum-filtered through Whatman no. 1 filter paper. The filtrate was concentrated approximately 40- to 50-fold by ultrafiltration through an Amicon ultrafiltration stirred cell (series no. 8000, Amicon Corp.) with a disc PM-10 filter (diameter, 76 mm). Protein in the concentrated filtrate was then precipitated from solution with 80% ammonium sulfate. The precipitate was collected by centrifugation (15 min, 10,000 rpm). The pellet was resuspended in 10 ml of 20 mM HEPES buffer (pH 8) and dialyzed overnight against the same buffer at 4° C. These preparations were then stored in 1-ml aliquots at -20° C. until used. Before using, the preparation was filtered through a NAP-25 Sephadex G-25 disposable column (Pharmacia) in order to separate a yellowish protein fraction from a pink low-molecular-weight fraction. The yellowish fraction was used as the source of enzyme. […] The reaction was started with the addition of 100 μl of 50 mM H2 O2 and was followed for 1 min at 37° C. Controls were run with no addition of H2 O2 or with the addition of the hemeperoxidase inhibitor KCN (final concentration 25 μM).

The test system of data set [3] is Phanerochaete chrysosporium. The experiment in a line: Substrate removal / decolorization by P. chrysosporium culture. The format is cell-based. The note with it: for % Decolorization, P. chrysosporium: 14 days. The protocol: Environ. Microbiol., 1981, 42:290-296), with the addition of 75 mg adenine (6-aminopurine) and 27 mg L-phenylalanine-per-liter. This addition accelerated the growth of the fungus without inhibiting ligninase activity. […] […] Cultures were incubated at 37° C. for 7 to 15 days with shaking (250 rpm). Solid agar media were also employed.

In another data set the test system is Mn(II)-peroxidase. The experiment in a line: Oxidation of dyes by P. chrysosporium Mn(II)-peroxidase. The format is biochemical, Phanerochaete chrysosporium. The note with it: crude enzyme, conditions specific for Mn(II)-peroxidase. The procedure: The peroxidase assay was carried out using a composition having a final volume of 1.0 ml. The reaction mixture contained 250 μl of 100 mM HEPES buffer (pH 8), 500 μl of 10 mM 2,4-dichlorophenol, 100 μl of 1 mM aminoantipyrine, 50 μl enzyme preparation and 100 μl 50 mM H2 O2. The reaction was initiated by the addition of hydrogen peroxide at 37° C. One unit of peroxidase activity was expressed as the amount of enzyme required for an increase of one absorbance-unit-per-minute at 510 nm. Assays of manganese peroxidase and of ligninase from P. chrysosporium were carried out as previously described by Paszczynski et al in "Manganese peroxidase of Phanerochaete chrysosporium: Purification," Methods Enzymol. 161:264-270, incorporated herein by reference. […] Biophys., 1986, 44:750-765. Preparation and assay of ligninase and manganese peroxidase from these P. chrysosporium cultures were carried out as previously reported by Paszczynski, et al., Methods Enzymol., 1988, 161:264-270. […] Purification," Methods Enzymol. 161:264-270. […] Cycle time was 10 seconds, with the last measure after three minutes of incubation.

The subject of data set [4] is P. chrysosporium ligninolytic culture. The format is cell-based, Phanerochaete chrysosporium. The note with it: initial 200 mg-per-liter, ten days of growth. The protocol:
Decolorization of dyes in cultures were monitored at their absorption maxima at pH 4.5, or using HPLC. A Spherisorb ODS2 C18 column was used for HPLC analysis with a sequence of DMS buffer at pH 4.5 and acetonitrile as solvents (5 min 100% DMS, 15 min 100% acetonitrile, 18 min 100% acetonitrile, 19 min 100% DMS, 20 min 100% DMS, 5 min postran 100% DMS). Peaks were monitored at 260 and 450 nm. Results from spectrophotometric and HPLC methods were compared.
The initial concentration of dye was 200 mg-per-liter. Numbers represent mg-per-liter of dye remaining in the cultures.

Where [5] appears, read: beginning concentration 100 ppm.
[6] abbreviates: beginning concentration 150 ppm.
Setting [7] is: beginning concentration 200 ppm.
The mark [8] stands for this setting: beginning concentration 300 ppm.

Consider `COc1ccc(N=Nc2ccc(S(=O)(=O)O)cc2)cc1OC` [compound 17], for which the “Oxidation rate of azo dyes, Horseradish peroxidase” value in data set [1] came out at 0.32 μmoles per minute per ml. The “Oxidation rate of azo dyes, P. chrysosporium Ligninase” value in the data set on ligninase is on record as 1.03 μmoles per minute per ml. Further, in data set [2], the “Oxidation rate of azo dyes, S. chromofuscus peroxidase” value is 0.50 μmoles per minute per ml. Besides, the “Concentration of substrate after ten days cultivation with P. chrysosporium” value (“Concentration … with P. chrysosporium” below) is given as 29.803 ppm in data set [3] (setting [5]), 58.942 ppm in data set [3] (setting [6]), 93.250 ppm in data set [3] (setting [7]) and 136.057 ppm in data set [3] (setting [8]). In addition, the “% Decolorization, P. chrysosporium” value in data set [3] (initial concn 150 ppm) turned out to be 79%; in data set [3] (initial concn 300 ppm) it was 74%. In the data set on Mn(II)-peroxidase, the “Oxidation rate of azo dyes, P. chrysosporium Mn-peroxidase” value is on record as 0.72 μmoles per minute per ml.
In the case of `Nc1ccc(N=Nc2ccc(S(=O)(=O)O)cc2)cc1S(=O)(=O)O` [compound 18], the “Oxidation rate of azo dyes, Horseradish peroxidase” value in data set [1] was found to be 0.12 μmoles per minute per ml. For the same compound, the “Oxidation rate of azo dyes, P. chrysosporium Ligninase” value in the data set on ligninase came to 1.38 μmoles per minute per ml. Also, the “Oxidation rate of azo dyes, S. chromofuscus peroxidase” value in data set [2] was determined as 0.15 μmoles per minute per ml. In addition, the “Concentration … with P. chrysosporium” value in data set [3] (setting [5]) came out at 8.387 ppm; in data set [3] (setting [6]), 20.342 ppm; in data set [3] (setting [7]), 40.875 ppm; in data set [3] (setting [8]), 77.099 ppm. Further, in the data set with Mn(II)-peroxidase, the “Oxidation rate of azo dyes, P. chrysosporium Mn-peroxidase” value is listed as 0.09 μmoles per minute per ml.
As for `O=S(=O)(O)c1ccc2c(N=Nc3ccccc3)c(O)ccc2c1` [compound 19], in data set [1], the “Oxidation rate of azo dyes, Horseradish peroxidase” value was 0.08 μmoles per minute per ml. In addition, in the data set on ligninase, the “Oxidation rate of azo dyes, P. chrysosporium Ligninase” value is recorded as 2.06 μmoles per minute per ml. The “Oxidation rate of azo dyes, S. chromofuscus peroxidase” value in data set [2] came to 0.35 μmoles per minute per ml. Moreover, the “Concentration … with P. chrysosporium” value in data set [3] (setting [6]) worked out at 2.938 ppm; in data set [3] (setting [8]), 252.592 ppm. Besides, the results for the “% Decolorization, P. chrysosporium” value in data set [3] (initial concn 150 ppm) and in data set [3] (initial concn 300 ppm) were 93% and 87%, respectively. For the same compound, the “Oxidation rate of azo dyes, P. chrysosporium Mn-peroxidase” value in the data set with Mn(II)-peroxidase amounted to 0.10 μmoles per minute per ml.
For the compound `Nc1c(N=Nc2ccc(-c3ccc(N=Nc4cc(S(=O)(=O)O)c5ccccc5c4N)cc3)cc2)cc(S(=O)(=O)O)c2ccccc12` [compound 20], in data set [4], the “Dye remaining in the cultures, HPLC” value was found to be 62.20 mg-per-liter and the “Dye remaining in the cultures, Spectrophotometry” value (“Dye remaining … Spectrophotometry” for short) is on record as 52.01 mg-per-liter.
`Cc1ccc(S(=O)(=O)Oc2ccc(N=Nc3ccc(-c4ccc(N=Nc5c(O)ccc6cc(S(=O)(=O)O)cc(S(=O)(=O)O)c56)c(C)c4)cc3C)cc2)cc1` [compound 21]: in data set [4], the “Dye remaining in the cultures, HPLC” value stood at 103.62 mg-per-liter and the “Dye remaining … Spectrophotometry” value turned out to be 102.38 mg-per-liter.
The like results for `COc1cc(-c2ccc(N=Nc3c(S(=O)(=O)O)cc4cc(S(=O)(=O)O)cc(N)c4c3O)c(OC)c2)ccc1N=Nc1c(S(=O)(=O)O)cc2cc(S(=O)(=O)O)cc(N)c2c1O` [compound 22] were, in that order, 12.28 mg-per-liter and 7.64 mg-per-liter.
The like results for `O=S(=O)(O)c1ccc(N=Nc2c(O)ccc3ccccc23)c2ccccc12` [compound 23] were, in that order, 72.43 mg-per-liter and 89.27 mg-per-liter.
For the compound `Nc1ccc2c(O)c(N=Nc3ccc(N=Nc4ccc(N=Nc5cc(S(=O)(=O)O)c6cccc(S(=O)(=O)O)c6c5)c5ccccc45)c4ccc(S(=O)(=O)O)cc34)c(S(=O)(=O)O)cc2c1` [compound 25], in data set [4], the “Dye remaining in the cultures, HPLC” value was 14.86 mg-per-liter and the “Dye remaining … Spectrophotometry” value was 9.66 mg-per-liter.
Take `Nc1ccc2cc(S(=O)(=O)O)cc(O)c2c1N=Nc1ccc(NC(=O)Nc2ccc(N=Nc3c(N)ccc4cc(S(=O)(=O)O)cc(O)c34)c(S(=O)(=O)O)c2)cc1S(=O)(=O)O` [compound 26]: in data set [4], the “Dye remaining in the cultures, HPLC” value was determined as 6.98 mg-per-liter and the “Dye remaining … Spectrophotometry” value came out at 4.33 mg-per-liter.
Turning to `CCOc1ccc(N=Nc2ccc(C=Cc3ccc(N=Nc4ccc(OCC)cc4)cc3S(=O)(=O)O)c(S(=O)(=O)O)c2)cc1` [compound 27], in data set [4], the “Dye remaining in the cultures, HPLC” value is on record as 29.42 mg-per-liter and the “Dye remaining … Spectrophotometry” value worked out at 28.33 mg-per-liter.
For `COc1ccccc1NC(=O)C(N=Nc1ccc(-c2nc3ccc(C)c(S(=O)(=O)O)c3s2)cc1S(=O)(=O)O)=C(C)O` [compound 29], in data set [4], the “Dye remaining in the cultures, HPLC” value stood at 109.39 mg-per-liter and the “Dye remaining … Spectrophotometry” value stood at 108.92 mg-per-liter.
As to `Nc1ccc(N=Nc2ccc(S(=O)(=O)O)cc2)cc1` [compound 30], in data set [1], the “Oxidation rate of azo dyes, Horseradish peroxidase” value is reported as 0.40 μmoles per minute per ml. Besides, in the data set on ligninase, the “Oxidation rate of azo dyes, P. chrysosporium Ligninase” value was 1.58 μmoles per minute per ml. For the same compound, in data set [2], the “Oxidation rate of azo dyes, S. chromofuscus peroxidase” value was determined as 0.00 μmoles per minute per ml. Further, the entries for the “% Decolorization, P. chrysosporium” value in data set [3] (initial concn 150 ppm) and in data set [3] (initial concn 300 ppm) were 85% and 80%, respectively. Further, the “Oxidation rate of azo dyes, P. chrysosporium Mn-peroxidase” value in the data set with Mn(II)-peroxidase was found to be 0.59 μmoles per minute per ml.
